Experimental data from patent US12599672B2, “KRAS proteolysis targeting chimeras” (PAQ Therapeutics Inc., priority 2023, dated 2026).

Columns and labels:
Assay type in all cases: cell-based
KRAS G12D = target: T1, KRAS G12D (Homo sapiens, UniProt P01116, G12D); assay: KRAS G12D HiBit assay; details: AsPc-1-KRAS (G12D)-HiBit-KI cell, compound treatment for 24 hours, absolute DC50
T1 construct: AsPc-1-KRAS (G12D)-HiBit-KI cell (Pharmaron); host or cells: AsPc-1-KRAS (G12D)-HiBit-KI cells (HiBiT knock-in at the endogenous KRAS locus)
How it was run: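 HiBiT luminescence, detected by adding lytic buffer, substrate and LgBiT protein, served as the KRAS G12D read-out. Compounds, serially diluted 3-fold over 10 points from 0.3 mM DMSO stock, were on cells for 24 h; percent inhibition normalized to cells given 0.1% DMSO only.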

KRAS G12V = target: T2, KRAS G12V (Homo sapiens, UniProt P01116, G12V); assay: KRAS G12V HiBit assay; details: SW620-KRAS (G12V)-HiBit-KI cells, compound treatment for 24 hours, class symbols
T2 construct: SW620-KRAS (G12V)-HiBit-KI cell (Pharmaron); host or cells: SW620-KRAS (G12V)-HiBit-KI cells (HiBiT knock-in at the endogenous KRAS locus)
How it was run: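 Luminescence from lytic Nano-Glo HiBiT detection with LgBiT read KRAS G12V levels after 24 h compound exposure. Dilutions were 10-point, 3-fold, from a 0.3 mM DMSO stock. Degradation activity was normalised to cells given 0.1% DMSO alone.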

KRAS = target: T3, KRAS (Homo sapiens, UniProt P01116); assay: KRASamp MSD assay; details: KE39 (KRAS amplified) cells, treated with test compounds for 24 hr, MSD readout of KRAS degradation
T3 construct: endogenous in cells; host or cells: KE39 (KRAS amplified) cells
How it was run: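 Degradation DC50 derived by curve fitting, with KRAS levels quantified by MSD electrochemiluminescence (capture/detection antibodies, recombinant WT KRAS standard). Lysates prepared from KE39 cells (KRAS amplified) exposed to test compounds for 24 hr.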

[1] = numeric bounds given in place of class symbols

T3 sequence (P01116 1-188 isoform P01116-2): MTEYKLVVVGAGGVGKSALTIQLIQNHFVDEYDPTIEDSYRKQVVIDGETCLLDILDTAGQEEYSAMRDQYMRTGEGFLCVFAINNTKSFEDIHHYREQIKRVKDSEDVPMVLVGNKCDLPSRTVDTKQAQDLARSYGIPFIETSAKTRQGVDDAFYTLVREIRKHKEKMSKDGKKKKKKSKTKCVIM
T2 sequence (P01116 1-188 isoform P01116-2 G12V): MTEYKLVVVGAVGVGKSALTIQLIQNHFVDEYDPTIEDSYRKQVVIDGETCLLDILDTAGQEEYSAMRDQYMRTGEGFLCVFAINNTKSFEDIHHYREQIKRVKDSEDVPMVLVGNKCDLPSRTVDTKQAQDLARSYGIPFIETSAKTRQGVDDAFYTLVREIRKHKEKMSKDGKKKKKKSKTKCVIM
T1 sequence (P01116 1-188 isoform P01116-2 G12D): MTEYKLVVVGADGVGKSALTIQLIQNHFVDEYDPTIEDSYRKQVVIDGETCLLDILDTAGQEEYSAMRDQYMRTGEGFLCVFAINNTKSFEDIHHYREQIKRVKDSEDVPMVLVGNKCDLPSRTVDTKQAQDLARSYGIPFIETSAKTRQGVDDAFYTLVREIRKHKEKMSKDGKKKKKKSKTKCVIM

Row | SMILES | DC50 (KRAS G12D; [1]) | DC50 (KRAS G12V) | DC50 (KRAS) | DC50 (KRAS G12D; class symbols)
1 | CCc1c(F)ccc2cc(O)cc(-c3ncc4c(N5CCC[C@H](CO)C5)nc(OC[C@@]56CCCN5[C@H](COC(=O)N5CCC(CN7CCC(c8ccc9c(c8)n(C)c(=O)n9C8CCC(=O)NC8=O)CC7)CC5)CC6)nc4c3F)c12 (stereo partly drawn) [Compound 339, ((3S,7aS)-7a-(((7-(8-ethyl-7-fluoro-3-hydroxynaphthalen-1-yl)-8-fluoro-4-((S)-3-(hydroxymethyl)piperidin-1-yl)pyrido[4,3-d]pyrimidin-2-yl)oxy)methyl)hexahydro-1H-pyrrolizin-3-yl)methyl 4-((4-(1-(2,6-dioxopiperidin-3-yl)-3-methyl-2-oxo-2,3-dihydro-1H-benzo[d]imidazol-5-yl)piperidin-1-yl)methyl)piperidine-1-carboxylate] | > 0.1 µM | > 0.1 µM | 0.001 to 0.01 µM | 
2 | CCc1c(F)ccc2cc(O)cc(-c3ncc4c(N5CCC[C@@H](CO)C5)nc(OC[C@@]56CCCN5[C@H](COC(=O)N5CCC(CN7CCC(c8ccc9c(c8)n(C)c(=O)n9C8CCC(=O)NC8=O)CC7)CC5)CC6)nc4c3F)c12 (stereo partly drawn) [Compound 340, ((3S,7aS)-7a-(((7-(8-ethyl-7-fluoro-3-hydroxynaphthalen-1-yl)-8-fluoro-4-((R)-3-(hydroxymethyl)piperidin-1-yl)pyrido[4,3-d]pyrimidin-2-yl)oxy)methyl)hexahydro-1H-pyrrolizin-3-yl)methyl 4-((4-(1-(2,6-dioxopiperidin-3-yl)-3-methyl-2-oxo-2,3-dihydro-1H-benzo[d]imidazol-5-yl)piperidin-1-yl)methyl)piperidine-1-carboxylate] |  | < 0.01 µM | < 0.001 µM | < 0.1 µM
3 | CCc1c(F)ccc2cc(O)cc(-c3ncc4c(N5CCCCCC5)nc(OC[C@@]56CCCN5[C@H](COC(=O)N5CCC7(CC5)CC(N5CCC(c8ccc9c(c8)n(C)c(=O)n9C8CCC(=O)NC8=O)CC5)C7)CC6)nc4c3F)c12 (stereo partly drawn) [Compound 344, ((3S,7aS)-7a-(((4-(azepan-1-yl)-7-(8-ethyl-7-fluoro-3-hydroxynaphthalen-1-yl)-8-fluoropyrido[4,3-d]pyrimidin-2-yl)oxy)methyl)hexahydro-1H-pyrrolizin-3-yl)methyl 2-(4-(1-(2,6-dioxopiperidin-3-yl)-3-methyl-2-oxo-2,3-dihydro-1H-benzo[d]imidazol-5-yl)piperidin-1-yl)-7-azaspiro[3.5]nonane-7-carboxylate] | > 0.1 µM | > 0.1 µM | 0.001 to 0.01 µM | 
4 | CCc1c(F)ccc2cc(O)cc(-c3ncc4c(N5CCN6CCCC6C5)nc(OC[C@@]56CCCN5[C@H](COC(=O)N5CCC7(CC5)CC(N5CCC(c8ccc9c(c8)n(C)c(=O)n9C8CCC(=O)NC8=O)CC5)C7)CC6)nc4c3F)c12 (stereo partly drawn) [Compound 345, ((3S,7aS)-7a-(((7-(8-ethyl-7-fluoro-3-hydroxynaphthalen-1-yl)-8-fluoro-4-(hexahydropyrrolo[1,2-a]pyrazin-2(1H)-yl)pyrido[4,3-d]pyrimidin-2-yl)oxy)methyl)hexahydro-1H-pyrrolizin-3-yl)methyl 2-(4-(1-(2,6-dioxopiperidin-3-yl)-3-methyl-2-oxo-2,3-dihydro-1H-benzo[d]imidazol-5-yl)piperidin-1-yl)-7-azaspiro[3.5]nonane-7-carboxylate] | > 0.1 µM | > 0.1 µM | 0.001 to 0.01 µM | 
5 | CCc1c(F)ccc2cc(O)cc(-c3ncc4c(N5CC6CC6C5)nc(OC[C@@]56CCCN5[C@H](COC(=O)N5CCC7(CC5)CC(N5CCC(c8ccc9c(c8)n(C)c(=O)n9C8CCC(=O)NC8=O)CC5)C7)CC6)nc4c3F)c12 (stereo partly drawn) [Compound 346, ((3S,7aS)-7a-(((4-(3-azabicyclo[3.1.0]hexan-3-yl)-7-(8-ethyl-7-fluoro-3-hydroxynaphthalen-1-yl)-8-fluoropyrido[4,3-d]pyrimidin-2-yl)oxy)methyl)hexahydro-1H-pyrrolizin-3-yl)methyl 2-(4-(1-(2,6-dioxopiperidin-3-yl)-3-methyl-2-oxo-2,3-dihydro-1H-benzo[d]imidazol-5-yl)piperidin-1-yl)-7-azaspiro[3.5]nonane-7-carboxylate] |  | 0.01 to 0.1 µM | 0.001 to 0.01 µM | < 0.1 µM
6 | CCc1c(F)ccc2cc(O)cc(-c3ncc4c(N5CC6(CCC6)C5)nc(OC[C@@]56CCCN5[C@H](COC(=O)N5CCC7(CC5)CC(N5CCC(c8ccc9c(c8)n(C)c(=O)n9C8CCC(=O)NC8=O)CC5)C7)CC6)nc4c3F)c12 (stereo partly drawn) [Compound 347, ((3S,7aS)-7a-(((7-(8-ethyl-7-fluoro-3-hydroxynaphthalen-1-yl)-8-fluoro-4-(2-azaspiro[3.3]heptan-2-yl)pyrido[4,3-d]pyrimidin-2-yl)oxy)methyl)hexahydro-1H-pyrrolizin-3-yl)methyl 2-(4-(1-(2,6-dioxopiperidin-3-yl)-3-methyl-2-oxo-2,3-dihydro-1H-benzo[d]imidazol-5-yl)piperidin-1-yl)-7-azaspiro[3.5]nonane-7-carboxylate] | > 0.1 µM | > 0.1 µM | ≥ 0.01 µM | 

The next lines start with the values.

Row | DC50 (KRAS G12D; [1]) | DC50 (KRAS G12V) | DC50 (KRAS) | DC50 (KRAS G12D; class symbols) | SMILES
7 | > 0.1 µM | > 0.1 µM | 0.001 to 0.01 µM |  | CCc1c(F)ccc2cc(O)cc(-c3ncc4c(N5CCC[C@@](C)(O)C5)nc(OC[C@]56CCCN5[C@H](COC(=O)N5CCC(Oc7ccc8c(c7)n(C)c(=O)n8C7CCC(=O)NC7=O)CC5)CC6)nc4c3F)c12 (stereo partly drawn) [Compound 330, ((3S,7aR)-7a-(((7-(8-ethyl-7-fluoro-3-hydroxynaphthalen-1-yl)-8-fluoro-4-((R)-3-hydroxy-3-methylpiperidin-1-yl)pyrido[4,3-d]pyrimidin-2-yl)oxy)methyl)hexahydro-1H-pyrrolizin-3-yl)methyl 4-((1-(2,6-dioxopiperidin-3-yl)-3-methyl-2-oxo-2,3-dihydro-1H-benzo[d]imidazol-5-yl)oxy)piperidine-1-carboxylate]
8 |  | 0.01 to 0.1 µM | 0.001 to 0.01 µM | < 0.1 µM | CCc1c(F)ccc2cc(O)cc(-c3ncc4c(N5CCC[C@@](C)(O)C5)nc(OC[C@]56CCCN5[C@H](COC(=O)N5CCC(N7CCC(c8ccc9c(c8)n(C)c(=O)n9C8CCC(=O)NC8=O)C7)CC5)CC6)nc4c3F)c12 (stereo partly drawn) [Compound 337, ((3S,7aR)-7a-(((7-(8-ethyl-7-fluoro-3-hydroxynaphthalen-1-yl)-8-fluoro-4-((R)-3-hydroxy-3-methylpiperidin-1-yl)pyrido[4,3-d]pyrimidin-2-yl)oxy)methyl)hexahydro-1H-pyrrolizin-3-yl)methyl 4-(3-(1-(2,6-dioxopiperidin-3-yl)-3-methyl-2-oxo-2,3-dihydro-1H-benzo[d]imidazol-5-yl)pyrrolidin-1-yl)piperidine-1-carboxylate]
9 | > 0.1 µM | > 0.1 µM | ≥ 0.01 µM |  | CCc1c(F)ccc2cc(O)cc(-c3ncc4c(N5CCCC(C)(CO)C5)nc(OC[C@@]56CCCN5[C@H](COC(=O)N5CCC(CN7CCC(c8ccc9c(c8)n(C)c(=O)n9C8CCC(=O)NC8=O)CC7)CC5)CC6)nc4c3F)c12 (stereo partly drawn) [Compound 341, ((3S,7aS)-7a-(((7-(8-ethyl-7-fluoro-3-hydroxynaphthalen-1-yl)-8-fluoro-4-(3-(hydroxymethyl)-3-methylpiperidin-1-yl)pyrido[4,3-d]pyrimidin-2-yl)oxy)methyl)hexahydro-1H-pyrrolizin-3-yl)methyl 4-((4-(1-(2,6-dioxopiperidin-3-yl)-3-methyl-2-oxo-2,3-dihydro-1H-benzo[d]imidazol-5-yl)piperidin-1-yl)methyl)piperidine-1-carboxylate]
10 | > 0.1 µM | > 0.1 µM | ≥ 0.01 µM |  | CCc1c(F)ccc2cc(O)cc(-c3ncc4c(N5CCCC5)nc(OC[C@@]56CCCN5[C@H](COC(=O)N5CCC7(CC5)CC(N5CCC(c8ccc9c(c8)n(C)c(=O)n9C8CCC(=O)NC8=O)CC5)C7)CC6)nc4c3F)c12 (stereo partly drawn) [Compound 348, ((3S,7aS)-7a-(((7-(8-ethyl-7-fluoro-3-hydroxynaphthalen-1-yl)-8-fluoro-4-(pyrrolidin-1-yl)pyrido[4,3-d]pyrimidin-2-yl)oxy)methyl)hexahydro-1H-pyrrolizin-3-yl)methyl 2-(4-(1-(2,6-dioxopiperidin-3-yl)-3-methyl-2-oxo-2,3-dihydro-1H-benzo[d]imidazol-5-yl)piperidin-1-yl)-7-azaspiro[3.5]nonane-7-carboxylate]
11 | > 0.1 µM | 0.01 to 0.1 µM | 0.001 to 0.01 µM |  | CCc1c(F)ccc2cc(O)cc(-c3ncc4c(N5CC[C@H](O)C5)nc(OC[C@@]56CCCN5[C@H](COC(=O)N5CCC7(CC5)CC(N5CCC(c8ccc9c(c8)n(C)c(=O)n9C8CCC(=O)NC8=O)CC5)C7)CC6)nc4c3F)c12 (stereo partly drawn) [Compound 349, ((3S,7aS)-7a-(((7-(8-ethyl-7-fluoro-3-hydroxynaphthalen-1-yl)-8-fluoro-4-((S)-3-hydroxypyrrolidin-1-yl)pyrido[4,3-d]pyrimidin-2-yl)oxy)methyl)hexahydro-1H-pyrrolizin-3-yl)methyl 2-(4-(1-(2,6-dioxopiperidin-3-yl)-3-methyl-2-oxo-2,3-dihydro-1H-benzo[d]imidazol-5-yl)piperidin-1-yl)-7-azaspiro[3.5]nonane-7-carboxylate]
